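Assay format: 96-well plates, 48-hour exposure. The concentration for 50% growth inhibition is given as GI50.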 Active and inactive are the calls of the source. No stated cut-off is given here; in the data, active = GI50 up to about 1.1 µM and inactive = higher.
What was measured:
Assay in all cases: DTP human tumour cell line panel, 48 h
MDA-N = system: MDA-N
U-251 = system: U-251
COLO 205 = system: COLO 205
IGROV-1 = system: IGROV-1
HOP-62 = system: HOP-62
SK-MEL-28 = system: SK-MEL-28
PC-3 = system: PC-3
MDA-MB-435 = system: MDA-MB-435
786-0 = system: 786-0
RXF 393 = system: RXF 393
OVCAR-5 = system: OVCAR-5
SW-620 = system: SW-620
SK-MEL-5 = system: SK-MEL-5
LOX IMVI = system: LOX IMVI
A498 = system: A498
UO-31 = system: UO-31
A549 = system: A549
SF-268 = system: SF-268
SN12C = system: SN12C
RPMI-8226 = system: RPMI-8226

Row | Structure (SMILES) | GI50 (MDA-N) | GI50 (U-251) | GI50 (COLO 205) | GI50 (IGROV-1) | GI50 (HOP-62) | GI50 (SK-MEL-28) | GI50 (PC-3) | GI50 (MDA-MB-435) | GI50 (786-0) | GI50 (RXF 393) | GI50 (OVCAR-5) | GI50 (SW-620) | GI50 (SK-MEL-5) | GI50 (LOX IMVI) | GI50 (A498) | GI50 (UO-31) | GI50 (A549) | GI50 (SF-268) | GI50 (SN12C) | GI50 (RPMI-8226)
1 | CN(N=O)c1ccc(/C=C/c2ccnc3ccccc23)cc1 | 75.3 µM (inactive) | 54.8 µM (inactive) | 39.3 µM (inactive) | 49 µM (inactive) | 78.3 µM (inactive) | > 100 µM (inactive) | 76.4 µM (inactive) | > 100 µM (inactive) | 46.5 µM (inactive) | 46.6 µM (inactive) | > 100 µM (inactive) | 73.3 µM (inactive) | 37.1 µM (inactive) | 36.3 µM (inactive) | 60.4 µM (inactive) | 30.4 µM (inactive) | 41.6 µM (inactive) | 79.8 µM (inactive) | 37.6 µM (inactive) | 
2 | CCOP(=O)(/C=C\n1ccc(=O)[nH]c1=O)OCC | > 100 µM (inactive) | > 100 µM (inactive) | > 100 µM (inactive) | > 100 µM (inactive) | > 100 µM (inactive) | > 100 µM (inactive) | > 100 µM (inactive) | > 100 µM (inactive) | > 100 µM (inactive) | > 100 µM (inactive) | > 100 µM (inactive) | > 100 µM (inactive) | > 100 µM (inactive) | > 100 µM (inactive) | > 100 µM (inactive) |  | > 100 µM (inactive) | > 100 µM (inactive) | > 100 µM (inactive) | > 100 µM (inactive)
3 | CCOC(=O)/C(C(=O)Nc1cccc(C(F)(F)F)c1)=C(/N)N1CCCC1 | > 100 µM (inactive) | 76.9 µM (inactive) | > 100 µM (inactive) | > 100 µM (inactive) | 44.6 µM (inactive) | > 100 µM (inactive) | > 100 µM (inactive) | > 100 µM (inactive) | 52.6 µM (inactive) | 20.9 µM (inactive) | > 100 µM (inactive) | > 100 µM (inactive) |  | > 100 µM (inactive) | 41.6 µM (inactive) |  | > 100 µM (inactive) | 54.3 µM (inactive) | 41.9 µM (inactive) | > 100 µM (inactive)
4 | C=CC1(CC/C(=C\[N+](=O)[O-])c2ccc(OC)c(OC)c2)OCC(C)(C)CO1 | 21.8 µM (inactive) | 23.1 µM (inactive) | 18 µM (inactive) |  | 18.3 µM (inactive) | 19.8 µM (inactive) | 25.6 µM (inactive) | 19.7 µM (inactive) | 17.1 µM (inactive) | 12.9 µM (inactive) | 16.1 µM (inactive) | 26.9 µM (inactive) | 13.1 µM (inactive) | 12.8 µM (inactive) | > 10 µM (inactive) | 15.1 µM (inactive) | 23.3 µM (inactive) | 16 µM (inactive) | 21 µM (inactive) | 
5 | C=C1CC(Cn2ccc(=O)[nH]c2=O)(c2ccc(OC)cc2)OC1=O (stereo unspecified) | 12.7 µM (inactive) | 22.3 µM (inactive) | 4.14 µM (inactive) | 15.7 µM (inactive) | 47.4 µM (inactive) | 18 µM (inactive) | 16 µM (inactive) | 15.8 µM (inactive) | 11.7 µM (inactive) |  | 17.5 µM (inactive) | 3.7 µM (inactive) | 13.9 µM (inactive) | 10.9 µM (inactive) | 15.3 µM (inactive) | 17.2 µM (inactive) | 24 µM (inactive) | 23.9 µM (inactive) | 13.8 µM (inactive) | 2.88 µM (inactive)
6 | CC[C@]1(Cc2ccc(OC)c(OC)c2)CN(S(=O)(=O)c2ccc(C)cc2)C[C@@H]1OC(C)=O | > 100 µM (inactive) | 65.6 µM (inactive) | > 100 µM (inactive) | 85.5 µM (inactive) | 33 µM (inactive) | > 100 µM (inactive) | 75.7 µM (inactive) | > 100 µM (inactive) | 39.2 µM (inactive) | > 100 µM (inactive) | > 100 µM (inactive) | > 100 µM (inactive) | > 100 µM (inactive) | > 100 µM (inactive) | > 100 µM (inactive) | > 100 µM (inactive) | 54.8 µM (inactive) | > 100 µM (inactive) |  | > 100 µM (inactive)
7 | COc1ccc(-c2cc(O)c3nc4ccccc4n3c2)cc1 | > 100 µM (inactive) | > 100 µM (inactive) | > 100 µM (inactive) | 71 µM (inactive) | > 100 µM (inactive) | > 100 µM (inactive) | > 100 µM (inactive) | > 100 µM (inactive) | > 100 µM (inactive) | > 100 µM (inactive) |  | > 100 µM (inactive) |  | > 100 µM (inactive) | > 100 µM (inactive) | > 100 µM (inactive) | > 100 µM (inactive) | > 100 µM (inactive) | > 100 µM (inactive) | > 100 µM (inactive)
8 | CC1(C)Oc2ccc3c(=O)cc(-c4ccccc4)oc3c2C1C(=O)O (stereo unspecified) | > 100 µM (inactive) | > 100 µM (inactive) | > 100 µM (inactive) | > 100 µM (inactive) | > 100 µM (inactive) |  | > 100 µM (inactive) | > 100 µM (inactive) | > 100 µM (inactive) | > 100 µM (inactive) | > 100 µM (inactive) |  | > 100 µM (inactive) |  | > 100 µM (inactive) |  | > 100 µM (inactive) | > 100 µM (inactive) | > 100 µM (inactive) | 
9 | Cc1cn(Cc2cccc(C3=NCCCN3)c2)c(=O)n(Cc2cccc(C3=NCCCN3)c2)c1=O | > 100 µM (inactive) | > 100 µM (inactive) | > 100 µM (inactive) | > 100 µM (inactive) | > 100 µM (inactive) | > 100 µM (inactive) | > 100 µM (inactive) | > 100 µM (inactive) | > 100 µM (inactive) |  | > 100 µM (inactive) | > 100 µM (inactive) | > 100 µM (inactive) | > 100 µM (inactive) | > 100 µM (inactive) | > 100 µM (inactive) | > 100 µM (inactive) | > 100 µM (inactive) | 25.4 µM (inactive) | > 100 µM (inactive)
10 | COc1ccc(C2=NN(C(=O)c3ccc(Cl)cc3)C(O)(c3cc(F)c(Cl)cc3Cl)C2)cc1OC (stereo unspecified) | 15.5 µM (inactive) | 19.2 µM (inactive) |  | 35.1 µM (inactive) | 99.8 µM (inactive) | > 100 µM (inactive) | 6.44 µM (inactive) | 13.2 µM (inactive) | 17.8 µM (inactive) | 6.17 µM (inactive) | > 100 µM (inactive) | 6.97 µM (inactive) | 33.1 µM (inactive) | 37.9 µM (inactive) | 5.2 µM (inactive) | 3.08 µM (inactive) |  | 21.2 µM (inactive) |  | 6.03 µM (inactive)
11 | O=C(OCC1OC(c2nn[nH]n2)C(OC(=O)c2ccccc2)C1OC(=O)c1ccccc1)c1ccccc1 (stereo unspecified) | > 100 µM (inactive) | > 100 µM (inactive) | > 100 µM (inactive) |  | > 100 µM (inactive) |  | > 100 µM (inactive) | > 100 µM (inactive) | > 100 µM (inactive) | 41.9 µM (inactive) | > 100 µM (inactive) | > 100 µM (inactive) | > 100 µM (inactive) | > 100 µM (inactive) | > 100 µM (inactive) | > 100 µM (inactive) | > 100 µM (inactive) | 76.7 µM (inactive) | > 100 µM (inactive) | 18.6 µM (inactive)
12 | COC(=O)[C@H](Cc1c[nH]c2ccccc12)NP(=O)(O)OCC1C=CC(n2cc(C)c(=O)[nH]c2=O)O1 (stereo partly specified) | > 100 µM (inactive) | > 100 µM (inactive) | > 100 µM (inactive) | > 100 µM (inactive) | > 100 µM (inactive) | > 100 µM (inactive) | > 100 µM (inactive) | > 100 µM (inactive) | > 100 µM (inactive) |  |  | > 100 µM (inactive) | > 100 µM (inactive) | > 100 µM (inactive) | > 100 µM (inactive) |  |  | > 100 µM (inactive) | > 100 µM (inactive) | > 100 µM (inactive)
13 | O=S(=O)(O)CCCC1S(=O)(=O)OCCOS1(=O)=O | > 100 µM (inactive) | > 100 µM (inactive) | > 100 µM (inactive) | > 100 µM (inactive) | > 100 µM (inactive) | > 100 µM (inactive) | > 100 µM (inactive) | > 100 µM (inactive) | > 100 µM (inactive) | > 100 µM (inactive) | > 100 µM (inactive) | > 100 µM (inactive) | > 100 µM (inactive) | > 100 µM (inactive) | > 100 µM (inactive) | > 100 µM (inactive) |  | > 100 µM (inactive) |  | > 100 µM (inactive)
14 | FC(F)(F)c1ccc2c(c1)nc(-c1ccccc1)n2CC1CCCN2CCCCC12 (stereo unspecified) | 17.6 µM (inactive) | 20.3 µM (inactive) | 13 µM (inactive) | 18.3 µM (inactive) | 27.5 µM (inactive) | 18.2 µM (inactive) | 15.3 µM (inactive) | 18.3 µM (inactive) | 15.7 µM (inactive) | 19 µM (inactive) |  | 28.1 µM (inactive) | 14.9 µM (inactive) | 15.4 µM (inactive) | 22.2 µM (inactive) | 0.27 µM (active) | 24.9 µM (inactive) | 15.6 µM (inactive) | 18.6 µM (inactive) | 32 µM (inactive)
15 | O=[N+]([O-])c1cc(-[n+]2cc([O-])on2)ccc1F | 16.1 µM (inactive) | 18.1 µM (inactive) | 17.7 µM (inactive) | 14.7 µM (inactive) | 15.8 µM (inactive) | 15.4 µM (inactive) | 18.4 µM (inactive) | 16.2 µM (inactive) | 11.7 µM (inactive) | 14.1 µM (inactive) | 16.5 µM (inactive) | 18.4 µM (inactive) | 15 µM (inactive) | 14.9 µM (inactive) |  | 3.58 µM (inactive) | 17 µM (inactive) | 14.8 µM (inactive) | 16.7 µM (inactive) | 8.97 µM (inactive)
